The term IC50 denotes the concentration that gives 50% inhibition.

One assay addresses mP2X7 (Mus musculus (Mouse), UniProt Q9Z1M0). The assay can be described thus: mP2X7 channel calcium-influx assay (Fluo-8 NW, FLIPR TETRA, Bz-ATP stimulation). Type of assay: cell-based. The method, then: (§1) Extracellular binding of Bz-ATP to P2X7 receptor opens the channel and allows Ca^2+ influx into the cells. This Ca^2+ entry was measured in HEK-293 cells stably transfected with P2X7 receptor using Screen Quest™ Fluo-8 No Wash Calcium Assay Kit (AAt Bioquest®, cat. 36316). Once inside the cell, the lipophilic blocking groups of Fluo-8 are cleaved by non-specific cell esterases, resulting in a negatively-charged fluorescent dye that stays inside cells. Its fluorescence increases upon binding to calcium. When HEK-293/P2X7 cells are stimulated with Bz-ATP, Ca^2+ enters the cells and the fluorescence of Fluo-8 NW increases.
(§2) HEK-293 cells stably transfected with P2X7 receptor were seeded overnight in growth medium at 10,000 to 20,000 cells/well in 384-well plate. 24 hours later, the medium was removed, and the cells were pre-loaded at RT for 1 hour with 20 μL/w of Fluo-8 NW. Then 10 μL/w of test compounds and reference antagonist A438079 at 3X-concentration were injected with the […] and the kinetic response over a period of five minutes was monitored.

The target in a further assay is P2X7 receptor (Homo sapiens (Human), UniProt Q99572). The assay can be described thus: Human P2X7 channel calcium-influx assay (Fluo-8 NW, FLIPR TETRA, Bz-ATP stimulation). The note with it: HEK-293 cells stably transfected with P2X7 receptor, Low Divalent Cation Assay Buffer, read-out: hP2X7 IC50. Type of assay: cell-based. The protocol: as §1, §2
Chain of P2X7 receptor (Q99572 whole entry): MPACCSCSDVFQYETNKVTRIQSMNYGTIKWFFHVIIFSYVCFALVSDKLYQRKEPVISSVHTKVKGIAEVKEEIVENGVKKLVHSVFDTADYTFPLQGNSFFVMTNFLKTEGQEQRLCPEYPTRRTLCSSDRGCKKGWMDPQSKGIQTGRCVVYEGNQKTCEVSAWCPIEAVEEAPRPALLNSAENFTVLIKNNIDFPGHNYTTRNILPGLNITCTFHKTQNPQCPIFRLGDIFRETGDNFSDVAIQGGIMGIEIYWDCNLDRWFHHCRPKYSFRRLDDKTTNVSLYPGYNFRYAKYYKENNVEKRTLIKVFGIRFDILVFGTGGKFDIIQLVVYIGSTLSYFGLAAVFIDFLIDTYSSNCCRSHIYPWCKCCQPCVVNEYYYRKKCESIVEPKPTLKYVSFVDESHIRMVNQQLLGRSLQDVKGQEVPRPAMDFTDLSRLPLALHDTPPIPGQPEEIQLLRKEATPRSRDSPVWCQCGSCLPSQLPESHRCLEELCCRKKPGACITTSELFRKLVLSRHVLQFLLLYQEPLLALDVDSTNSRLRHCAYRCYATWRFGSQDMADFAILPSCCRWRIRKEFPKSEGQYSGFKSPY

Chain of mP2X7 (Q9Z1M0 whole entry): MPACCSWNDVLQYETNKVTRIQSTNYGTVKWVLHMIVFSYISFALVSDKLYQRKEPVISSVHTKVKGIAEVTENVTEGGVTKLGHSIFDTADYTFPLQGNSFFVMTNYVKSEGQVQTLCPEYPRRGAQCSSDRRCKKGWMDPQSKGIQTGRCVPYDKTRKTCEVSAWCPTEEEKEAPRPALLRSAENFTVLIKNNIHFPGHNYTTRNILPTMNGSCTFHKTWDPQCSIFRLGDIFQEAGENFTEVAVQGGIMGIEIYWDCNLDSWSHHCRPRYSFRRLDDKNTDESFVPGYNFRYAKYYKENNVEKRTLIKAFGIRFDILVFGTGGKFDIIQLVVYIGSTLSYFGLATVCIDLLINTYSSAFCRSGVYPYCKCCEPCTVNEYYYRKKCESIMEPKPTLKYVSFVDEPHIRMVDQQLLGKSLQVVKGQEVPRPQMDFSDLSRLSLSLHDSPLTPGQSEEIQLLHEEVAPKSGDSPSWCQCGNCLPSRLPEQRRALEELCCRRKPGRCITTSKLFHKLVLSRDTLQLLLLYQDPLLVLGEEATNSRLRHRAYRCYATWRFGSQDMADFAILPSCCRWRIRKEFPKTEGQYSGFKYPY

Take `N#Cc1ccncc1OCC1CCN(C(CNC(=O)c2c(F)cccc2Cl)c2scnc2C(F)F)CC1` (stereo not drawn) [Example 111, 2-Chloro-N-[2-(4-{[(4-cyanopyridin-3-yl)oxy]methyl}piperidin-1-yl)-2-[4-(difluoromethyl)-1,3-thiazol-5-yl]ethyl]-6-fluorobenzamide]: the IC50 on mP2X7 worked out at 16.1 nM; on P2X7 receptor it was 22.5 nM.
The like results for `Cc1cccnc1OCC1CCN(C(CNC(=O)c2c(F)cccc2Cl)c2scnc2C(F)F)CC1` (stereo not drawn) [Example 99, 2-Chloro-N-{2-[4-(difluoromethyl)-1,3-thiazol-5-yl]-2-(4-{[(3-methylpyridin-2-yl)oxy]methyl}piperidin-1-yl)ethyl}-6-fluorobenzamide] were, in that order, 15.2 nM and 22.8 nM.
For `Cc1nnc2c(OC3CCN(C(CNC(=O)c4c(F)cccc4Cl)c4scnc4C(F)F)CC3)nccn12` (stereo not drawn) [Example 52, 2-Chloro-N-{2-[4-(difluoromethyl)-1,3-thiazol-5-yl]-2-[4-({3-methyl-[1,2,4]triazolo[4,3-a]pyrazin-8-yl}oxy)piperidin-1-yl]ethyl}-6-fluorobenzamide], in that order: 571 nM and 274 nM.
Consider `O=C(NCC(c1scnc1C(F)F)N1CCC(COc2nnnn2-c2ccccc2)CC1)c1c(F)cccc1Cl` (stereo not drawn) [Example 97, 2-Chloro-N-{2-[4-(difluoromethyl)-1,3-thiazol-5-yl]-2-(4-{[(1-phenyl-1H-1,2,3,4-tetrazol-5-yl)oxy]methyl}piperidin-1-yl)ethyl}-6-fluorobenzamide], for which the IC50 at mP2X7 worked out at 13.8 nM; at P2X7 receptor it was 34 nM.
For `Cc1ccc(OC2CCN(C(CNC(=O)c3c(F)cccc3Cl)c3scnc3C(F)F)CC2)nn1` (stereo not drawn) [Example 29, 2-Chloro-N-{2-[4-(difluoromethyl)-1,3-thiazol-5-yl]-2-{4-[(6-methylpyridazin-3-yl)oxy]piperidin-1-yl}ethyl}-6-fluorobenzamide], in that order: 87.6 nM and 31.7 nM.
In the case of `O=C(NCC(c1scnc1C(F)F)N1CCC(Oc2cc(C(F)(F)F)ncn2)CC1)c1c(F)cccc1Cl` (stereo not drawn) [Example 43, 2-Chloro-N-{2-[4-(difluoromethyl)-1,3-thiazol-5-yl]-2-(4-{[6-(trifluoromethyl)pyrimidin-4-yl]oxy}piperidin-1-yl)ethyl}-6-fluorobenzamide], the IC50 came out at 63.9 nM on mP2X7 and 69.2 nM on P2X7 receptor.
`N#Cc1nccnc1OCC1CCN(C(CNC(=O)c2c(F)cccc2Cl)c2scnc2C(F)F)CC1` (stereo not drawn) [Example 92, 2-Chloro-N-[2-(4-{[(3-cyanopyrazin-2-yl)oxy]methyl}piperidin-1-yl)-2-[4-(difluoromethyl)-1,3-thiazol-5-yl]ethyl]-6-fluorobenzamide]: the results for the IC50 on mP2X7 and at P2X7 receptor were 33.5 nM and 22.5 nM, respectively.
The like results for `N#Cc1cnccc1OC1CCN(C(CNC(=O)c2c(F)cccc2Cl)c2scnc2C(F)F)CC1` (stereo not drawn) [Example 50, 2-Chloro-N-(2-{4-[(3-cyanopyridin-4-yl)oxy]piperidin-1-yl}-2-[4-(difluoromethyl)-1,3-thiazol-5-yl]ethyl)-6-fluorobenzamide] were, in that order, 224 nM and 89 nM.
The like results for `COc1nccc(OC2CCN(C(CNC(=O)c3c(F)cccc3Cl)c3scnc3C(F)F)CC2)n1` (stereo not drawn) [Example 63, 2-Chloro-N-{2-[4-(difluoromethyl)-1,3-thiazol-5-yl]-2-{4-[(2-methoxypyrimidin-4-yl)oxy]piperidin-1-yl}ethyl}-6-fluorobenzamide] were, in that order, 49.3 nM and 41.2 nM.
For `O=C(NCC(c1scnc1C(F)F)N1CCC(COc2ccn3nccc3n2)CC1)c1c(F)cccc1Cl` (stereo not drawn) [Example 117, 2-Chloro-N-{2-[4-(difluoromethyl)-1,3-thiazol-5-yl]-2-[4-({pyrazolo[1,5-a]pyrimidin-5-yloxy}methyl)piperidin-1-yl]ethyl}-6-fluorobenzamide], in that order: 35.8 nM and 48.2 nM.
In the case of `O=C(NCC(c1scnc1C(F)F)N1CCC(Oc2ccccn2)CC1)c1c(F)cccc1Cl` (stereo not drawn) [Example 1, 2-chloro-N-{2-[4-(difluoromethyl)-1,3-thiazol-5-yl]-2-[4-(pyridin-2-yloxy)piperidin-1-yl]ethyl}-6-fluorobenzamide], the IC50 on mP2X7 is 53.5 nM; at P2X7 receptor, 21.7 nM.
For `O=C(NCC(c1scnc1C(F)F)N1CCC(Oc2ccnc(F)n2)CC1)c1c(F)cccc1Cl` (stereo not drawn) [Example 35, 2-Chloro-N-{2-[4-(difluoromethyl)-1,3-thiazol-5-yl]-2-{4-[(2-fluoropyrimidin-4-yl)oxy]piperidin-1-yl}ethyl}-6-fluorobenzamide], in that order: 190 nM and 71.1 nM.
For `O=C(NCC(c1scnc1C(F)F)N1CCC(COc2ncccc2Cl)CC1)c1c(F)cccc1Cl` (stereo not drawn) [Example 120, 2-Chloro-N-[2-(4-{[(3-chloropyridin-2-yl)oxy]methyl}piperidin-1-yl)-2-[4-(difluoromethyl)-1,3-thiazol-5-yl]ethyl]-6-fluorobenzamide], in that order: 16.4 nM and 32.5 nM.
Regarding `N#Cc1nccnc1OC1CCN(C(CNC(=O)c2c(F)cccc2Cl)c2scnc2C(F)F)CC1` (stereo not drawn) [Example 17, 2-Chloro-N-(2-{4-[(3-cyanopyrazin-2-yl)oxy]piperidin-1-yl}-2-[4-(difluoromethyl)-1,3-thiazol-5-yl]ethyl)-6-fluorobenzamide], the values for the IC50 at mP2X7 and at P2X7 receptor were 320 nM and 55 nM, respectively.
The like results for `COCCc1nsc(OC2CCN(C(CNC(=O)c3c(F)cccc3Cl)c3scnc3C(F)F)CC2)n1` (stereo not drawn) [Example 23, 2-Chloro-N-{2-[4-(difluoromethyl)-1,3-thiazol-5-yl]-2-(4-{[3-(2-methoxyethyl)-1,2,4-thiadiazol-5-yl]oxy}piperidin-1-yl)ethyl}-6-fluorobenzamide] were, in that order, 183 nM and 73.6 nM.
With `N#Cc1cncc(OC2CCN(C(CNC(=O)c3c(F)cccc3Cl)c3scnc3C(F)F)CC2)c1` (stereo not drawn) [Example 16, 2-Chloro-N-(2-{4-[(5-cyanopyridin-3-yl)oxy]piperidin-1-yl}-2-[4-(difluoromethyl)-1,3-thiazol-5-yl]ethyl)-6-fluorobenzamide], the IC50 on mP2X7 worked out at 68.3 nM; on P2X7 receptor it was 56.9 nM.
Turning to `Cc1cnc(OC2CCN(C(CNC(=O)c3c(F)cccc3Cl)c3scnc3C(F)F)CC2)nc1` (stereo not drawn) [Example 28, 2-Chloro-N-{2-[4-(difluoromethyl)-1,3-thiazol-5-yl]-2-{4-[(5-methylpyrimidin-2-yl)oxy]piperidin-1-yl}ethyl}-6-fluorobenzamide], the IC50 at mP2X7 amounted to 206 nM; on P2X7 receptor it was 64.4 nM.
The like results for `Cc1cnc(F)nc1OC1CCN(C(CNC(=O)c2c(F)cccc2Cl)c2scnc2C(F)F)CC1` (stereo not drawn) [Example 55, 2-Chloro-N-{2-[4-(difluoromethyl)-1,3-thiazol-5-yl]-2-{4-[(2-fluoro-5-methylpyrimidin-4-yl)oxy]piperidin-1-yl}ethyl}-6-fluorobenzamide] were, in that order, 34 nM and 22.9 nM.
For the compound `O=C(NCC(c1scnc1C(F)F)N1CCC(COc2cc(F)ccn2)CC1)c1c(F)cccc1Cl` (stereo not drawn) [Example 126, 2-chloro-N-{2-[4-(difluoromethyl)-1,3-thiazol-5-yl]-2-(4-{[(4-fluoropyridin-2-yl)oxy]methyl}piperidin-1-yl)ethyl}-6-fluorobenzamide], the IC50 at mP2X7 stood at 34.7 nM; on P2X7 receptor it was 36.5 nM.
For `O=C(NCC(c1scnc1C(F)F)N1CCC(Oc2nccc3ncccc23)CC1)c1c(F)cccc1Cl` (stereo not drawn) [Example 49, 2-Chloro-N-{2-[4-(difluoromethyl)-1,3-thiazol-5-yl]-2-[4-(1,6-naphthyridin-5-yloxy)piperidin-1-yl]ethyl}-6-fluorobenzamide], in that order: 19.5 nM and 19.4 nM.
Consider `N#Cc1cnccc1OCC1CCN(C(CNC(=O)c2c(F)cccc2Cl)c2scnc2C(F)F)CC1` (stereo not drawn) [Example 122, 2-Chloro-N-[2-(4-{[(3-cyanopyridin-4-yl)oxy]methyl}piperidin-1-yl)-2-[4-(difluoromethyl)-1,3-thiazol-5-yl]ethyl]-6-fluorobenzamide], for which the IC50 came out at 44.2 nM on mP2X7 and 39.6 nM at P2X7 receptor.
For `O=C(NCC(c1scnc1C(F)F)N1CCC(Oc2ccc(F)cn2)CC1)c1c(F)cccc1Cl` (stereo not drawn) [Example 30, 2-Chloro-N-{2-[4-(difluoromethyl)-1,3-thiazol-5-yl]-2-{4-[(5-fluoropyridin-2-yl)oxy]piperidin-1-yl}ethyl}-6-fluorobenzamide], in that order: 24 nM and 17.3 nM.
The like results for `Cc1cnc(OCC2CCN(C(CNC(=O)c3c(F)cccc3Cl)c3scnc3C(F)F)CC2)nc1` (stereo not drawn) [Example 100, 2-Chloro-N-{2-[4-(difluoromethyl)-1,3-thiazol-5-yl]-2-(4-{[(5-methylpyrimidin-2-yl)oxy]methyl}piperidin-1-yl)ethyl}-6-fluorobenzamide] were, in that order, 66.7 nM and 37.8 nM.
The like results for `O=C(NCC(c1scnc1C(F)F)N1CCC(COc2nccc(C(F)(F)F)n2)CC1)c1c(F)cccc1Cl` (stereo not drawn) [Example 114, 2-Chloro-N-{2-[4-(difluoromethyl)-1,3-thiazol-5-yl]-2-[4-({[4-(trifluoromethyl)pyrimidin-2-yl]oxy}methyl)piperidin-1-yl]ethyl}-6-fluorobenzamide] were, in that order, 37.2 nM and 50.7 nM.
